Experimental data reported in patent US20240150300A1, “S-CONFIGURATION-CONTAINING AMINO BENZAMIDE PYRIDAZINONE COMPOUND, PREPARATION METHOD THEREFOR, AND PHARMACEUTICAL COMPOSITION AND APPLICATION THEREOF” (SHANGHAI INSTITUTE OF MATERIA MEDICA, CHINESE ACADEMY OF …, priority 2021, published 2024).

Assays:
[1] = molecular target: HDAC1 (Homo sapiens (Human), UniProt Q13547); experiment: In vitro histone deacetylase activity assay (HTRF), HDAC1; format: biochemical; conditions: H3(1-21) K9Ac biotin substrate
HDAC1, sequence (Q13547 whole entry): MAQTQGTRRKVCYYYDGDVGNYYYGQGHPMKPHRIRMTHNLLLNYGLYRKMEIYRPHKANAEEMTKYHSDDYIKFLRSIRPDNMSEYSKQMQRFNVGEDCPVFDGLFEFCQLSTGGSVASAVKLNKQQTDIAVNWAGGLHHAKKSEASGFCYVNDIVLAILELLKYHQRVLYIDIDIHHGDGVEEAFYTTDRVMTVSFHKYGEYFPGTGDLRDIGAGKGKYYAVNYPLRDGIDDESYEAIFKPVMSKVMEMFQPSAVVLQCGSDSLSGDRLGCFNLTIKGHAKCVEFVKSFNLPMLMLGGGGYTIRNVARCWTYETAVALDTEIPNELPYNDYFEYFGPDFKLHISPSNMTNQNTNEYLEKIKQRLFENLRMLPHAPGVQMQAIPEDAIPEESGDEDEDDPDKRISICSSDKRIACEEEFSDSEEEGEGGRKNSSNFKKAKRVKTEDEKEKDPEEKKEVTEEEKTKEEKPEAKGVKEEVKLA
Procedure: (§1) Human recombinant HDAC family proteins with His and GST tags were expressed using insect baculovirus expression system, and a biologically active HDAC family recombinant protein was obtained through Ni affinity column protein purification. HTRF detection method was used with H3(1-21) K9Ac biotin as the substrate. […] Briefly, 20 μl of the activity testing system included the HDAC substrate (0.2 μM. 4 μl), the Human Recombinant Protein HDAC (2-5 ng)/μl.

[2] = tested on: SKM-1 cells; experiment: Antiproliferative activity, CCK-8, SKM-1; format: cell-based, human; conditions: 72 h
Procedure: (§2) The tumor cells used were purchased from commercial cell banks (HCT116 purchased from ATCC, SKM 1 purchased from JCRB). The growth inhibition of cells was detected using the CCK-8 method. The specific steps were as follows. Cells in the logarithmic growth phase were seeded into a 96 well culture plate at an appropriate density, with 90 μL/well. After overnight cultivation, different concentrations of drugs were added for treatment for 72 h, with each concentration in triplicate, and corresponding concentration of vehicle control and cell-free blank wells were also set. After the treatment, 10 μL of CCK-8 was added to each well and the plate was incubated in an incubator for 2-4 hours, and the optical density (OD value) at a wavelength of 450 nm was measured using a SpectraMax 190 microplate reader. […] The experiment was repeated twice, and the mean value and SD were calculated.
With reference to HCT-116 cell proliferation inhibition test method, the inhibitory activity of the compounds on the proliferation of human myelodysplastic syndrome cell SKM-1 was tested.

[3] = tested on: CMK; experiment: Antiproliferative activity, CCK-8, CMK; format: cell-based; conditions: Down syndrome acute megakaryocyte leukemia, read-out: Cytotoxicity (IC50 μM)
Procedure: as §2
(§3) The testing method for antiproliferative activity was the same as that mentioned in Pharmacological Experiment Example 2, and the results are shown in Table 4 and FIGS. 2-3.

[4] = tested on: MV-4-11; experiment: Antiproliferative activity, CCK-8, MV-4-11; format: cell-based; conditions: MV-4-11, Acute monocyte/Monocyte leukemia; read-out: Cytotoxicity (IC50 μM)
Procedure: as §2, §3

[5] = tested on: KG-1; experiment: Antiproliferative activity, CCK-8, KG-1; format: cell-based; conditions: KG-1, Acute myeloid leukemia; read-out: Cytotoxicity (IC50 μM)
Procedure: as §2, §3

[6] = tested on: KARPAS-1106P; experiment: Antiproliferative activity, CCK-8, KARPAS-1106P; format: cell-based; conditions: Primary mediastinal large B-cell lymphoma, read-out: Cytotoxicity (IC50 μM)
Procedure: as §2, §3

[7] = tested on: OCI-LY-10; experiment: Antiproliferative activity, CCK-8, OCI-LY-10; format: cell-based; conditions: OCI-LY-10, Diffuse large B-cell lymphoma; read-out: Cytotoxicity (IC50 μM)
Procedure: as §2, §3

[8] = tested on: CCRF-CEM; experiment: Antiproliferative activity, CCK-8, CCRF-CEM; format: cell-based; conditions: T-cell acute lymphoblastic leukemia, read-out: Cytotoxicity (IC50 μM)
Procedure: as §2, §3

[9] = tested on: VMM39; experiment: Antiproliferative activity, CCK-8, VMM39; format: cell-based; conditions: VMM39, Melanoma; read-out: Cytotoxicity (IC50 μM)
Procedure: as §2, §3

[10] = tested on: NCI-H929; experiment: Antiproliferative activity, CCK-8, NCI-H929; format: cell-based; conditions: NCI-H929, Human multiple myeloma; read-out: Cytotoxicity (IC50 μM)
Procedure: as §2, §3

[11] = molecular target: HDAC8 (Homo sapiens (Human), UniProt Q9BY41); experiment: HDAC subtype inhibitory activity (HTRF), HDAC8; format: biochemical
HDAC8, sequence (Q9BY41 whole entry): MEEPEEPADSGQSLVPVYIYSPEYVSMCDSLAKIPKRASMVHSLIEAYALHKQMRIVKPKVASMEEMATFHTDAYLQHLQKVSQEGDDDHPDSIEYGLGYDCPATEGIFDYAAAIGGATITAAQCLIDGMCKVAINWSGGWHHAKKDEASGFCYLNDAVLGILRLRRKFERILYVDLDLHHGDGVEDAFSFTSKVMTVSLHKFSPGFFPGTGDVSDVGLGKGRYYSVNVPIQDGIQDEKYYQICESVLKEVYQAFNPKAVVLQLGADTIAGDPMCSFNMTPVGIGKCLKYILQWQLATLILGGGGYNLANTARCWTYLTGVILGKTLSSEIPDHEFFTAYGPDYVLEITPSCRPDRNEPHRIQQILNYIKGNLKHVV
Procedure: as §1

[12] = tested on: OCI-LY-3; experiment: Antiproliferative activity, CCK-8, OCI-LY-3; format: cell-based; conditions: OCI-LY-3, Diffuse large B-cell lymphoma; read-out: Cytotoxicity (IC50 μM)
Procedure: as §2, §3

[13] = tested on: HCT-116 cells; experiment: Antiproliferative activity, CCK-8, HCT-116; format: cell-based, human; conditions: 72 h
Procedure: as §2

[14] = tested on: Mino; experiment: Antiproliferative activity, CCK-8, Mino; format: cell-based; conditions: Mantle cell lymphoma, read-out: Cytotoxicity (IC50 μM)
Procedure: as §2, §3

[15] = molecular target: HDAC6 (Homo sapiens (Human), UniProt Q9UBN7); experiment: In vitro histone deacetylase activity assay (HTRF), HDAC6; format: biochemical; conditions: H3(1-21) K9Ac biotin substrate
HDAC6, sequence (Q9UBN7 whole entry): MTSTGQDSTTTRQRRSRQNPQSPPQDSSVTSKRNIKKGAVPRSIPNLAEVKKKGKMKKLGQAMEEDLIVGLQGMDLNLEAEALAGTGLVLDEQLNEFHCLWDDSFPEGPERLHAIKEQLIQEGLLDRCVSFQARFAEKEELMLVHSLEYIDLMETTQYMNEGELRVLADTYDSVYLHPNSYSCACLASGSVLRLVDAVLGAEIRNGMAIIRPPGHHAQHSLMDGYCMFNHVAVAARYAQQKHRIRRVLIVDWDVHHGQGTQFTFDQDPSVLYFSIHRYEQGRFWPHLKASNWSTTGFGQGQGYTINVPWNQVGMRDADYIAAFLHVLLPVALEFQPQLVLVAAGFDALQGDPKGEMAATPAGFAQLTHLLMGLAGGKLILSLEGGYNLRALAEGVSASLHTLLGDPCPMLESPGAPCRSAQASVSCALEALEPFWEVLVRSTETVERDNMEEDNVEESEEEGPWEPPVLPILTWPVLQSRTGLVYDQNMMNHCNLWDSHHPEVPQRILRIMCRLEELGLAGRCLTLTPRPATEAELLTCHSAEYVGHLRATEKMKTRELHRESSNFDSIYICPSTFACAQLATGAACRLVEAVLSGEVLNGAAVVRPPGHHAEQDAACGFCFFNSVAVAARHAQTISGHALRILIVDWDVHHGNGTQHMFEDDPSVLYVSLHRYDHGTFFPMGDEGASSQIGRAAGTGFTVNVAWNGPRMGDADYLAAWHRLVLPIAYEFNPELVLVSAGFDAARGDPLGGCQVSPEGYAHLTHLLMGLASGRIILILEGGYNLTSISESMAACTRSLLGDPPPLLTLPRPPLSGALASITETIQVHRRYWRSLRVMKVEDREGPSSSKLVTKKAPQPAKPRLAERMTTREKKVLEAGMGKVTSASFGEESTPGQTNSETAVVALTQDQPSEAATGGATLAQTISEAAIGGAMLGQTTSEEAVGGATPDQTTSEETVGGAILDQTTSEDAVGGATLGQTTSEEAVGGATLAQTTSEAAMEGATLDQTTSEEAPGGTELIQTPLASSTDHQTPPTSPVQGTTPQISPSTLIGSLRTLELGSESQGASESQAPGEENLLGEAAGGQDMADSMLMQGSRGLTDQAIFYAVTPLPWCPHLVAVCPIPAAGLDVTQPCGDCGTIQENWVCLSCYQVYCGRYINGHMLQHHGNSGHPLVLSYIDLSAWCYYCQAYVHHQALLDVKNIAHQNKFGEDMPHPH
Procedure: as §1

[16] = tested on: WILL-2; experiment: Antiproliferative activity, CCK-8, WILL-2; format: cell-based; conditions: WILL-2, Diffuse large B-cell lymphoma; read-out: Cytotoxicity (IC50 μM)
Procedure: as §2, §3

[17] = molecular target: HDAC2 (Homo sapiens (Human), UniProt Q92769); experiment: HDAC subtype inhibitory activity (HTRF), HDAC2; format: biochemical
HDAC2, sequence (Q92769 whole entry): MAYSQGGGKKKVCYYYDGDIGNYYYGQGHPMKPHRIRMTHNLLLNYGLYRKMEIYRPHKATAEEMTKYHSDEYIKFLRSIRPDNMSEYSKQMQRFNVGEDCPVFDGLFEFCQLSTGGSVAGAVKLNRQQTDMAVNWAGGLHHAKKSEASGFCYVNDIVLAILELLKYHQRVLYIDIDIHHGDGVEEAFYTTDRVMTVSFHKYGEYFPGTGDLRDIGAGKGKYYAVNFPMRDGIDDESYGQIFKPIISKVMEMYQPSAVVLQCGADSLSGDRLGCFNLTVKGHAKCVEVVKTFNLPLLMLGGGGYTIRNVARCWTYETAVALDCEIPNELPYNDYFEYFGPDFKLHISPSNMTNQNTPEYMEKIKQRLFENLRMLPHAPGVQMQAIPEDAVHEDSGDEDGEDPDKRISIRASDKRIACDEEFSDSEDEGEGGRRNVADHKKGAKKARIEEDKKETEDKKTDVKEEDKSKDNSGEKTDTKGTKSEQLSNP
Procedure: as §1

[18] = tested on: HDLM-2; experiment: Antiproliferative activity, CCK-8, HDLM-2; format: cell-based; conditions: HDLM-2, Hodgkin's lymphoma; read-out: Cytotoxicity (IC50 μM)
Procedure: as §2, §3

[19] = molecular target: HDAC10 (Homo sapiens (Human), UniProt Q969S8); experiment: HDAC subtype inhibitory activity (HTRF), HDAC10; format: biochemical
HDAC10, sequence (Q969S8 whole entry): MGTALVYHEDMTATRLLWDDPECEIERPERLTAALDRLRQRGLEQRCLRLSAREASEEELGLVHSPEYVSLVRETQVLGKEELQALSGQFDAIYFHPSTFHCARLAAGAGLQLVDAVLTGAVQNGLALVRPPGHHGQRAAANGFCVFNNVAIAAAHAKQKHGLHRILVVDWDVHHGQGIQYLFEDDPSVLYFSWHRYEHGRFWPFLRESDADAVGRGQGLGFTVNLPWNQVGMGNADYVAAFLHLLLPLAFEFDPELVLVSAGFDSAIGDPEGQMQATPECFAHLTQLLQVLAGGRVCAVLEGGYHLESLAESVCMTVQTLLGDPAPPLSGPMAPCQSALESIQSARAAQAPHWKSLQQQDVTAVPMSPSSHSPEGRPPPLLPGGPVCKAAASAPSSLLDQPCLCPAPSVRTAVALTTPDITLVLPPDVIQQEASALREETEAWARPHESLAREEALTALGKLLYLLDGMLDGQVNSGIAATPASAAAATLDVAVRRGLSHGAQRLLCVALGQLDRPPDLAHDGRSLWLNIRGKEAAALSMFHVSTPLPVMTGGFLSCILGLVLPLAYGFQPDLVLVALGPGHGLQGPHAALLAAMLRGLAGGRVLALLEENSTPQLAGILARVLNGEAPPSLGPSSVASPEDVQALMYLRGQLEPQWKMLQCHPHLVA
Procedure: as §1

[20] = tested on: U937; experiment: Antiproliferative activity, CCK-8, U937; format: cell-based; conditions: U937, Human tissue cell lymphoma; read-out: Cytotoxicity (IC50 μM)
Procedure: as §2, §3

[21] = tested on: TMD8; experiment: Antiproliferative activity, CCK-8, TMD8; format: cell-based; conditions: TMD8, Diffuse large B-cell lymphoma; read-out: Cytotoxicity (IC50 μM)
Procedure: as §2, §3

[22] = tested on: K-562; experiment: Antiproliferative activity, CCK-8, K-562; format: cell-based; conditions: K-562, Chronic myeloid leukemia; read-out: Cytotoxicity (IC50 μM)
Procedure: as §2, §3

[23] = tested on: KMS-11; experiment: Antiproliferative activity, CCK-8, KMS-11; format: cell-based; conditions: KMS-11, Human multiple myeloma; read-out: Cytotoxicity (IC50 μM)
Procedure: as §2, §3

[24] = tested on: RL; experiment: Antiproliferative activity, CCK-8, RL; format: cell-based; conditions: Diffuse large B-cell lymphoma, read-out: Cytotoxicity (IC50 μM)
Procedure: as §2, §3

[25] = tested on: human myelodysplastic syndrome cells SKM-1 transplanted tumor; experiment: SKM-1 NOD/SCID mice transplanted tumor model; format: in vivo; conditions: oral 60 mg/kg qd, 18 days

## C[C@@H](c1ccc(C(=O)Nc2ccc(F)cc2N)cc1)n1nc(-c2ccc(CN(C)C)cc2)ccc1=O [Compound I-1]
[1]
  IC50: 0.0576 ± 0.00442 µM
[2]
  IC50: 0.14 ± 0.008 µM
[3]
  IC50: 0.131 ± 0.011 µM
[4]
  IC50: 0.088 ± 0.002 µM
[5]
  IC50: 0.95 ± 0.066 µM
[6]
  IC50: 0.498 ± 0.009 µM
[7]
  IC50: 0.297 ± 0.042 µM
[8]
  IC50: 0.382 ± 0.067 µM
[9]
  IC50: 0.46 ± 0.032 µM
[10]
  IC50: 0.642 ± 0.025 µM
[11]
  IC50: > 100 µM
[12]
  IC50: 0.198 ± 0.048 µM
[13]
  IC50: 0.22 ± 0.004 µM
[14]
  IC50: 0.142 ± 0.013 µM
[15]
  IC50: > 10 µM
[16]
  IC50: 0.347 ± 0.217 µM
[17]
  IC50: 0.09 ± 0.006 µM
[18]
  IC50: 0.647 ± 0.404 µM
[19]
  IC50: > 100 µM
[20]
  IC50: 0.435 ± 0.254 µM
[21]
  IC50: 0.807 ± 0.142 µM
[22]
  IC50: 0.473 ± 0.171 µM
[23]
  IC50: 0.671 ± 0.01 µM
[24]
  IC50: 0.24 ± 0.019 µM
[25]
  relative tumor proliferation rate (T/C): 11.78%
